Experimental data published in patent US10945932B2, “Prebiotic oral care compositions containing carboxylic acids” (COLGATE-PALMOLIVE COMPANY, priority 2013, dated 2021).

Legend:
Format in all cases: cell-based
[1] = system: Actinomyces naeslundii; assay: Metabolic activity, Biolog phenotype microarray; conditions: A naeslundii
Description: (§1) The extent of metabolic activity of the tested bacteria in the presence of the above-mentioned acids after 24 hours and 48 hours was investigated through a high throughput phenotype microarray system (PM) for microbial cells (Biolog Inc.). Each PM can contain up to 95 different biochemical compounds (e.g. organic acids) that may act as substrates for bacteria as well as one negative control, not containing the substrates. Microarray plates were used in which the different wells of each plate were pre-loaded (by the manufacturer, Biolog Inc.) with different organic acids to be tested. Each bacterial species was tested using a separate microarray plate. Thus, a single bacterial species was tested with a variety of organic acids on each particular plate. The microarrays are based on redox technology, using cell respiration as a universal reporter. […] The observation of this color change indicates which of the substrates improve the metabolic activity and health of the cells.
(§2) Each bacterial species was collected from blood agar plates (incubated for 48 hours anaerobically at 37° C.) and transferred to an IF-0 Base inoculation fluid (Biolog Inc.), which is a nutritionally poor medium. […] A 1:5 dilution of this suspension was prepared by mixing 3 mL of the 42% transmittance cell suspension with 15 mL of an inoculation fluid (which inoculation fluid was formed by mixing 11.6 mL sterile water, 62.5 mL IF-0 base inoculation fluid and 0.9 mL of the tetrazolium dye “Biolog Redox Dye mix D”), resulting in a final cell density which was equal to 85% transmittance using a BioRad SmartSpec 3000 Photometer. For each of the acids tested, the microarray plate (obtained from the supplier (Biolog Inc.) with acid already present in the relevant wells in powder form) was directly inoculated with 100 μL/well of this 85% transmittance cell suspension.
(§3) All plates were incubated in an anaerobic atmosphere at 37° C. Color changes were measured spectrophotometrically at 492 nm (Thermo Scientific Multiskan Ascent) at 24 hrs and 48 hrs using the same plate at both time points.
(§4) The controls were also carried out three times, as above.

[2] = system: Actinomyces viscosus; assay: Metabolic activity, Biolog phenotype microarray; conditions: A viscosus
Description: as §1, §2, §3, §4

[3] = system: Aggregatibacter actinomycetemcomitans; assay: Metabolic activity, Biolog phenotype microarray; conditions: A actinomycetemcomitans
Description: as §1, §2, §3, §4

[4] = system: Capnocytophaga sputigena; assay: Metabolic activity, Biolog phenotype microarray; conditions: C sputigena
Description: as §1, §2, §3, §4

[5] = system: Fusobacterium nucleatum; assay: Metabolic activity, Biolog phenotype microarray; conditions: F nucleatum
Description: as §1, §2, §3, §4

[6] = system: Porphyromonas gingivalis; assay: Metabolic activity, Biolog phenotype microarray; conditions: P gingivalis
Description: as §1, §2, §3, §4

[7] = system: Prevotella intermedia; assay: Metabolic activity, Biolog phenotype microarray; conditions: P intermedia
Description: as §1, §2, §3, §4

[8] = system: Streptococcus gordonii; assay: Metabolic activity, Biolog phenotype microarray; conditions: S gordonii
Description: as §1, §2, §3, §4

[9] = system: Streptococcus mitis; assay: Metabolic activity, Biolog phenotype microarray; conditions: S mitis
Description: as §1, §2, §3, §4

[10] = system: Streptococcus mutans; assay: Metabolic activity, Biolog phenotype microarray; conditions: S mutans
Description: as §1, §2, §3, §4

[11] = system: Streptococcus salivarius; assay: Metabolic activity, Biolog phenotype microarray; conditions: S salivarius
Description: as §1, §2, §3, §4

[12] = system: Streptococcus sanguinis; assay: Metabolic activity, Biolog phenotype microarray; conditions: S sanguinis
Description: as §1, §2, §3, §4

[13] = system: Streptococcus sobrinus; assay: Metabolic activity, Biolog phenotype microarray; conditions: S sobrinus
Description: as §1, §2, §3, §4

[14] = system: Tannerella forsythia; assay: Metabolic activity, Biolog phenotype microarray; conditions: T forsythia
Description: as §1, §2, §3, §4

[15] = system: Veillonella parvula; assay: Metabolic activity, Biolog phenotype microarray; conditions: V parvula
Description: as §1, §2, §3, §4

[16] = system: beneficial oral bacteria and pathogenic oral bacteria; assay: Metabolic activity, prebiotic effect over the whole panel; conditions: threshold value of 2
Description: as §1, §2, §3, §4

Row | Compound | metabolic activity, OD at 492 nm divided by OD of control (control = 1) ([1]; 24 hrs) | metabolic activity, OD at 492 nm divided by OD of control (control = 1) ([1]; 48 hrs) | metabolic activity, OD at 492 nm divided by OD of control (control = 1) ([2]; 24 hrs) | metabolic activity, OD at 492 nm divided by OD of control (control = 1) ([2]; 48 hrs) | metabolic activity, OD at 492 nm divided by OD of control (control = 1) ([3]; 24 hrs) | metabolic activity, OD at 492 nm divided by OD of control (control = 1) ([3]; 48 hrs) | metabolic activity, OD at 492 nm divided by OD of control (control = 1) ([4]; 24 hrs) | metabolic activity, OD at 492 nm divided by OD of control (control = 1) ([4]; 48 hrs) | metabolic activity, OD at 492 nm divided by OD of control (control = 1) ([5]; 24 hrs) | metabolic activity, OD at 492 nm divided by OD of control (control = 1) ([5]; 48 hrs) | metabolic activity, OD at 492 nm divided by OD of control (control = 1) ([6]; 24 hrs) | metabolic activity, OD at 492 nm divided by OD of control (control = 1) ([6]; 48 hrs) | metabolic activity, OD at 492 nm divided by OD of control (control = 1) ([7]; 24 hrs) | metabolic activity, OD at 492 nm divided by OD of control (control = 1) ([7]; 48 hrs) | metabolic activity, OD at 492 nm divided by OD of control (control = 1) ([8]; 24 hrs) | metabolic activity, OD at 492 nm divided by OD of control (control = 1) ([8]; 48 hrs) | metabolic activity, OD at 492 nm divided by OD of control (control = 1) ([9]; 24 hrs) | metabolic activity, OD at 492 nm divided by OD of control (control = 1) ([9]; 48 hrs) | metabolic activity, OD at 492 nm divided by OD of control (control = 1) ([10]; 24 hrs) | metabolic activity, OD at 492 nm divided by OD of control (control = 1) ([10]; 48 hrs) | also measured
1 | O=C(O)C[C@H](O)C(=O)O [L-malic acid] | 0.9796 | 0.9086 | 0.9803 | 1.0090 | 1.6257 | 1.9196 | 0.8764 | 0.8870 | 0.8813 | 0.8215 | 0.8367 | 0.8279 | 0.9958 | 1.0146 | 0.9161 | 0.8652 | 0.9743 | 0.8207 | 0.9627 | 0.8760 | metabolic activity, OD at 492 nm divided by OD of control (control = 1) ([11]; 24 hrs): 0.9740; metabolic activity, OD at 492 nm divided by OD of control (control = 1) ([11]; 48 hrs): 0.9426; metabolic activity, OD at 492 nm divided by OD of control (control = 1) ([12]; 24 hrs): 0.8788; metabolic activity, OD at 492 nm divided by OD of control (control = 1) ([12]; 48 hrs): 0.9018; metabolic activity, OD at 492 nm divided by OD of control (control = 1) ([13]; 24 hrs): 1.0506; metabolic activity, OD at 492 nm divided by OD of control (control = 1) ([13]; 48 hrs): 0.9898; metabolic activity, OD at 492 nm divided by OD of control (control = 1) ([14]; 24 hrs): 0.9252; metabolic activity, OD at 492 nm divided by OD of control (control = 1) ([14]; 48 hrs): 0.9462; metabolic activity, OD at 492 nm divided by OD of control (control = 1) ([15]; 24 hrs): 2.0256; metabolic activity, OD at 492 nm divided by OD of control (control = 1) ([15]; 48 hrs): 1.5012; prebiotic effect (metabolic activity) ([16]; 24 hrs): exhibited prebiotic effects
2 | O=C(O)[C@H](O)[C@@H](O)[C@H](O)[C@H](O)CO[C@H]1O[C@H](CO)[C@H](O)[C@H](O)[C@H]1O [Melibionic acid, melibionic acid] | 1.2539 | 1.3926 | 1.6342 | 2.0904 | 0.9361 | 0.8912 | 0.6213 | 0.9143 | 0.9131 | 0.8299 | 0.8689 | 0.9301 | 1.0625 | 1.0988 | 1.0326 | 0.9389 | 1.0443 | 0.9983 | 1.1010 | 1.0362 | metabolic activity, OD at 492 nm divided by OD of control (control = 1) ([11]; 24 hrs): 0.9984; metabolic activity, OD at 492 nm divided by OD of control (control = 1) ([11]; 48 hrs): 0.9237; metabolic activity, OD at 492 nm divided by OD of control (control = 1) ([12]; 24 hrs): 1.0430; metabolic activity, OD at 492 nm divided by OD of control (control = 1) ([12]; 48 hrs): 1.0832; metabolic activity, OD at 492 nm divided by OD of control (control = 1) ([13]; 24 hrs): 1.1366; metabolic activity, OD at 492 nm divided by OD of control (control = 1) ([13]; 48 hrs): 1.1222; metabolic activity, OD at 492 nm divided by OD of control (control = 1) ([14]; 24 hrs): 1.0848; metabolic activity, OD at 492 nm divided by OD of control (control = 1) ([14]; 48 hrs): 1.1865; metabolic activity, OD at 492 nm divided by OD of control (control = 1) ([15]; 24 hrs): 0.8685; metabolic activity, OD at 492 nm divided by OD of control (control = 1) ([15]; 48 hrs): 0.6981; prebiotic effect (metabolic activity) ([16]; 48 hrs): exhibited prebiotic effects
